From patent US20070172957A1, “Methods of identifying anti-inflammatory macrolides” (TAISHO PHARMACEUTICAL CO., LTD., priority 2004, published 2007)

Test system: A549 cells
Test: A549 microarray comparing macrolides with arachidonic acid pathway inhibitors, with IL-1β stimulation (Appendix C, Tables 6-9), and correlation analysis
Type: cell-based
Excerpt: One inhibitor, triacsin C, acts on AA biosynthesis by inhibiting arachidonyl CoA synthetases, blocking the incorporation of free AA into phospholipids. Triacsin C is reasonably specific for AA compared to other fatty acids. However, triacsin C structurally resembles AA so it also may interfere with other steps in the AA pathway. Indomethacin is an inhibitor of COX1 and COX2 enzyme activities and therefore specifically blocks metabolism of AA into prostaglandins. […] It inhibits transcription of PLA2, and transcriptionally and post-transcriptionally regulates COX1 and COX2 activities. Dexamethasone has additional effects unrelated to AA through binding with the glucocorticoid receptor to glucocortcoid response elements.
A549 cells were pre-incubated overnight (17 hours) with macrolides (10 μM FMA-9045, 50 μM clarithromycin, 50 μM roxithromycin, 50 μM josamycin) and 15 μM triacsin C, and pre-incubated 2 hours with 100 nM indomethacin and 100 nM dexamethasone. All cells then were stimulated for 4 hours with IL-1β, because the activation of PLA2 and downstream signaling events generally requires an inflammatory stimulus. The various treatment conditions are shown below in Table 4. Following macrolide and inhibitor pre-treatment and IL-1 stimulation, the cells were lysed, total RNA was collected, and the poly-A+ mRNA fraction was purified. The resulting microarray data (Appendix C) were analyzed using the methods described in the Examples above.
The tables in Appendix C represent the effects of the arachidonic acid pathway inhibitors (“AA pathway inhibitors”) and the effects of the macrolides (“IL1+macrolide effects”). […] In both tables in Appendix C, the genes that meet this criterion (≧1.3 min fold change) are indicated in bold.
Quantitative analysis was done to determine how well the responses to the different AA pathway inhibitors correlated. The correlation values were assigned a p-value to provide statistical confidence to the correlation value. Correlation between experiments, across all spots showing good detection, was assessed by cosine vector angle to generate the data shown in Tables 7-9. A correlation coefficient close to one indicates strong correlation, whereas a value near zero indicates no correlation. P-values for each correlation coefficient were estimated based on a Fisher permutation test. In this test, each spot's expression ratios were randomly re-ordered across experiments and the degree of correlation between experiments was then reassessed. This was done repeatedly.

[1] = A549 cells, +IL1b +/- inhibitor

CCC/C=C/C/C=C/C=C/C=N/NN=O [triacsin C]
Total # Differential Genes (95% confidence) (A549, IL1 vs IL1 + drug, threshold 1.3, macrolides 50 μM (FMA 10 μM), triacsin C 15 μM, indomethacin and dexamethasone 100 nM): 228 | FADS1 expression (A549 cells, microarray): induced

C[C@@H]1C[C@H]2[C@@H]3CCC4=CC(=O)C=C[C@]4(C)[C@@]3(F)[C@@H](O)C[C@]2(C)[C@@]1(O)C(=O)CO [Dexa]
wtd means, SpotID 46796 STC1 (stanniocalcin 1) [1]: 1.41 | wtd means, SpotID 46950 SERPINA3 (serine (or cysteine) proteinase inhibitor, clade A, member 3) [1]: 1.39 | wtd means, SpotID 46985 RIPK2 (RIP2, RICK; receptor-interacting serine-threonine kinase 2) [1]: 1.83 | wtd means, SpotID 47155 TNFAIP6 (tumor necrosis factor, alpha-induced protein 6) [1]: 1.27 | wtd means, SpotID 47166 SERPINA6 (serine (or cysteine) proteinase inhibitor, clade A, member 6) [1]: 1.33 | wtd means, SpotID 47444 TKT (transketolase (Wernicke-Korsakoff syndrome)) [1]: 0.83 | wtd means, SpotID 47569 STAT3 (signal transducer and activator of transcription 3) [1]: 1.42 | wtd means, SpotID 47698 PTPRJ (protein tyrosine phosphatase, receptor type, J) [1]: 1.38 | wtd means, SpotID 47987 THBS1 (thrombospondin 1) [1]: 0.66 | wtd means, SpotID 48234 PTPRZ1 (PTP zeta; protein tyrosine phosphatase, receptor-type, Z polypeptide 1) [1]: 1.00 | wtd means, SpotID 48239 TLN1 (talin 1) [1]: 1.53 | wtd means, SpotID 48288 TRAF5 (TNF receptor-associated factor 5) [1]: 1.42 | wtd means, SpotID 48359 RIPK1 (receptor (TNFRSF)-interacting serine-threonine kinase 1) [1]: 1.61 | wtd means, SpotID 48392 RIPK1 (receptor (TNFRSF)-interacting serine-threonine kinase 1) [1]: 1.62 | wtd means, SpotID 48395 TNFRSF7 (CD27; tumor necrosis factor receptor superfamily, member 7) [1]: 1.53 | wtd means, SpotID 48485 UCP1 (uncoupling protein 1 (mitochondrial, proton carrier)) [1]: 1.00 | wtd means, SpotID 48500 RPL13A (ribosomal protein L13a) [1]: 1.65 | wtd means, SpotID 48603 TEAD4 (TEA domain family member 4) [1]: 1.67 | wtd means, SpotID 49330 TNFRSF7 (CD27; tumor necrosis factor receptor superfamily, member 7) [1]: 1.76 | wtd means, SpotID 49899 WWOX (WW domain containing oxidoreductase) [1]: 0.76 | wtd means, SpotID 49901 TROAP (trophinin associated protein (tastin)) [1]: 0.84 | wtd means, SpotID 50379 TNFRSF6 (FAS; tumor necrosis factor receptor superfamily, member 6) [1]: 1.40 | wtd means, SpotID 50428 RPLP0 (ribosomal protein, large, P0) [1]: 0.73 | wtd means, SpotID 50491 TNFRSF6B (DcR3; tumor necrosis factor receptor superfamily, member 6b, decoy) [1]: 1.36
